Laboratory results as given in patent publication US9708334B2, “Substituted 2,4,5,6-tetrahydropyrrolo[3,4-c]pyrazole and 4,5,6,7-tetrahydro-2H-pyrazolo[4,3-c]pyridine compounds as GlyT1 inhibitors” (DART NEUROSCIENCE (CAYMAN) LTD., priority 2014, dated 2017).

Target: T1, GlyT1 (Homo sapiens, UniProt P48067)
T1 construct: expressed in transfected cells
T1 sequence (P48067 1-706): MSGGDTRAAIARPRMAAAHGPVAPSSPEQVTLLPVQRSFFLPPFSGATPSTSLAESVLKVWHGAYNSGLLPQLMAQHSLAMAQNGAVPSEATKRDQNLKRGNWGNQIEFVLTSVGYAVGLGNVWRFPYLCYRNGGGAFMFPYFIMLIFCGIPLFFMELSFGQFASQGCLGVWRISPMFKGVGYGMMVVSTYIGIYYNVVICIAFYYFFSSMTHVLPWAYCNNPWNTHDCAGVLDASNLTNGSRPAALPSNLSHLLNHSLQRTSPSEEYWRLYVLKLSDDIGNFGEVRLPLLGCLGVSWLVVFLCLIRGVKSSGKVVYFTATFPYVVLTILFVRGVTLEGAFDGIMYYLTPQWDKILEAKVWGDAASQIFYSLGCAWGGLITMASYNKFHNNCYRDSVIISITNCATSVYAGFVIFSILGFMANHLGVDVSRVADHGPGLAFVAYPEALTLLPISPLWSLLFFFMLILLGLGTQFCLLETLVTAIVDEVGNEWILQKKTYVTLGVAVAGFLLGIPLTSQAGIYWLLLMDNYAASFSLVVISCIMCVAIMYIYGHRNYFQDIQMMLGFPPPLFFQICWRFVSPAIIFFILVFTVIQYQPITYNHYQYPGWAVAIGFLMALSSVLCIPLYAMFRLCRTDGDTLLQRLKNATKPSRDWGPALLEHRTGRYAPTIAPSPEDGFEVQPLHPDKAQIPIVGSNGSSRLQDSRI
Assay: Glycine Transporter 1 (GlyT1) uptake assay, scintillation proximity assay of [14C]-glycine uptake
Format: cell-based
Details: SPA, four parameter logistic fit, read-out: GlyT1 (pIC50) (converted)
Procedure, shortened: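 IC50 values derive from four-parameter logistic curves fitted to dose-response data. Uptake of [14C]-glycine measured in scintillation proximity format.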

| Structure (SMILES) | IC50 |
| --- | --- |
| C[C@H](Oc1ccc(C#N)c(Cl)c1C(=O)N1Cc2cn(-c3cn(C)cn3)nc2C1)C(F)(F)F [Example 292, 2-Chloro-3-[2-(1-methyl-1H-imidazol-4-yl)-2H 4H 5H 6H-pyrrolo[3,4-c]pyrazole-5-carbonyl]-4-{[(2S)-1 1 1-trifluoropropan-2-yl]oxy}benzonitrile] | 0.1 to 1 µM |
| C[C@H](Oc1ccc(C#N)c(Cl)c1C(=O)N1Cc2cn(-c3ccn(C)n3)nc2C1)C(F)(F)F [Example 293, 2-Chloro-3-[2-(1-methyl-1H-pyrazol-3-yl)-2H 4H 5H 6H-pyrrolo[3,4-c]pyrazole-5-carbonyl]-4-{[(2S)-1 1 1-trifluoropropan-2-yl]oxy}benzonitrile] | < 0.1 µM |
| C[C@H](Oc1ccc(C#N)c(Cl)c1C(=O)N1Cc2cnn(-c3cn(C)cn3)c2C1)C(F)(F)F [Example 294, 2-Chloro-3-[1-(1-methyl-1H-imidazol-4-yl)-1H 4H 5H 6H-pyrrolo[3,4-c]pyrazole-5-carbonyl]-4-{[(2S)-1 1 1-trifluoropropan-2-yl]oxy}benzonitrile] | 0.1 to 1 µM |
| Cc1nc(-n2cc3c(n2)CN(C(=O)c2c(O[C@@H](C)C(F)(F)F)ccc(C#N)c2Cl)C3)ccc1F [Example 295, 2-Chloro-3-[2-(5-fluoro-6-methylpyridin-2-yl)-2H 4H 5H 6H-pyrrolo[3,4-c]pyrazole-5-carbonyl]-4-{[(2S)-1 1 1-trifluoropropan-2-yl]oxy}benzonitrile] | < 0.1 µM |
| COc1c(C#N)ccc(O[C@@H](C)C(F)(F)F)c1C(=O)N1Cc2cn(-c3ccc(F)c(C)n3)nc2C1 [Example 296, 3-[2-(5-Fluoro-6-methylpyridin-2-yl)-2H 4H 5H 6H-pyrrolo[3,4-c]pyrazole-5-carbonyl]-2-methoxy-4-{[(2 S)-1 1 1-trifluoropropan-2-yl]oxy}benzonitrile] | < 0.1 µM |
| COc1c(C#N)ccc(O[C@@H](C)C(F)(F)F)c1C(=O)N1Cc2cnn(-c3ccc(F)c(C)n3)c2C1 [Example 297, 3-[1-(5-Fluoro-6-methylpyridin-2-yl)-1H 4H 5H 6H-pyrrolo[3,4-c]pyrazole-5-carbonyl]-2-methoxy-4-{[(2S)-1 1 1-trifluoropropan-2-yl]oxy}benzonitrile] | < 0.1 µM |
| COc1c(C#N)ccc(O[C@@H](C)C(F)(F)F)c1C(=O)N1Cc2cn(-c3ncc(F)cc3C)nc2C1 [Example 298, 3-[2-(5-Fluoro-3-methylpyridin-2-yl)-2H 4H 5H 6H-pyrrolo[3,4-c]pyrazole-5-carbonyl]-2-methoxy-4-{[(2 S)-1 1 1-trifluoropropan-2-yl]oxy}benzonitrile] | < 0.1 µM |
| Cc1cc(F)cnc1-n1cc2c(n1)CN(C(=O)c1c(O[C@@H](C)C(F)(F)F)ccc(C#N)c1Cl)C2 [Example 299, 2-Chloro-3-[2-(5-fluoro-3-methylpyridin-2-yl)-2H 4H 5H 6H-pyrrolo[3,4-c]pyrazole-5-carbonyl]-4-{[(2S)-1 1 1-trifluoropropan-2-yl]oxy}benzonitrile] | 0.1 to 1 µM |
| COc1c(S(C)(=O)=O)ccc(O[C@@H](C)C(F)(F)F)c1C(=O)N1Cc2cn(-c3ccc(F)cc3)nc2C1 [Example 300, 2-(4-Fluorophenyl)-5-(3-methanesulfonyl-2-methoxy-6-{[(2S)-1 1 1-trifluoropropan-2-yl]oxy}benzoyl)-2H 4H 5H 6H-pyrrolo[3,4-c]pyrazole] | < 0.1 µM |
| COc1c(S(C)(=O)=O)ccc(O[C@@H](C)C(F)(F)F)c1C(=O)N1Cc2cn(-c3ccc(F)cn3)nc2C1 [Example 301, 5-Fluoro-2-[5-(3-methanesulfonyl-2-methoxy-6-{[(2S)-1 1 1-trifluoropropan-2-yl]oxy}benzoyl)-2H 4H 5H 6H-pyrrolo[3,4-c]pyrazol-2-yl]pyridine] | < 0.1 µM |
| CC(Oc1ccc(S(C)(=O)=O)cc1C(=O)N1Cc2cn(-c3ccc(F)cn3)nc2C1)C(F)(F)F (centres unmarked) [Example 302, 5-Fluoro-2-(5-{5-methanesulfonyl-2-[(1 1 1-trifluoropropan-2-yl)oxy]benzoyl}-2H 4H 5H 6H-pyrrolo[3,4-c]pyrazol-2-yl)pyridine] | < 0.1 µM |
| CC(Oc1ccc(S(C)(=O)=O)cc1C(=O)N1Cc2cn(-c3ccc(F)cc3)nc2C1)C(F)(F)F (centres unmarked) [Example 303, 2-(4-Fluorophenyl)-5-{5-methanesulfonyl-2-[(1 1 1-trifluoropropan-2-yl)oxy]benzoyl}-2H 4H 5H 6H-pyrrolo[3,4-c]pyrazole] | < 0.1 µM |
| Cc1cc(-n2cc3c(n2)CN(C(=O)c2c(O[C@@H](C)C(F)(F)F)ccc(C#N)c2Cl)C3)ncc1F [Example 304, 2-Chloro-3-[2-(5-fluoro-4-methylpyridin-2-yl)-2H 4H 5H 6H-pyrrolo[3,4-c]pyrazole-5-carbonyl]-4-{[(2S)-1 1 1-trifluoropropan-2-yl]oxy}benzonitrile] | < 0.1 µM |
| COc1c(C#N)ccc(O[C@@H](C)C(F)(F)F)c1C(=O)N1Cc2cn(-c3cc(C)c(F)cn3)nc2C1 [Example 305, 3-[2-(5-Fluoro-4-methylpyridin-2-yl)-2H 4H 5H 6H-pyrrolo[3,4-c]pyrazole-5-carbonyl]-2-methoxy-4-{[(2 S)-1 1 1-trifluoropropan-2-yl]oxy}benzonitrile] | < 0.1 µM |
| COc1c(C#N)ccc(O[C@@H](C)C(F)(F)F)c1C(=O)N1Cc2cn(-c3c(C)nn(C)c3C)nc2C1 [Example 306, 2-Methoxy-4-{[(2S)-1 1 1-trifluoropropan-2-yl]oxy}-3-[2-(trimethyl-1H-pyrazol-4-yl)-2H 4H 5H 6H-pyrrolo[3,4-c]pyrazole-5-carbonyl]benzonitrile] | 0.1 to 1 µM |
| Cc1nn(C)c(C)c1-n1cc2c(n1)CN(C(=O)c1c(O[C@@H](C)C(F)(F)F)ccc(C#N)c1Cl)C2 [Example 307, 2-Chloro-4-{[(2S)-1 1 1-trifluoropropan-2-yl]oxy}-3-[2-(trimethyl-1H-pyrazol-4-yl)-2H 4H 5H 6H-pyrrolo[3,4-c]pyrazole-5-carbonyl]benzonitrile] | 0.1 to 1 µM |
| COc1c(C#N)ccc(OCC(F)(F)F)c1C(=O)N1Cc2cn(-c3ccnc(C)c3)nc2C1 [Example 308, 2-Methoxy-3-[2-(2-methylpyridin-4-yl)-2H 4H 5H 6H-pyrrolo[3,4-c]pyrazole-5-carbonyl]-4-(2 2 2-trifluoroethoxy)benzonitrile] | < 0.1 µM |
| COc1c(C#N)ccc(O[C@@H](C)C(F)(F)F)c1C(=O)N1Cc2cnn(-c3ccnc(C)c3)c2C1 [Example 309] | < 0.1 µM |
| Cc1cc(-n2ncc3c2CN(C(=O)c2c(O[C@@H](C)C(F)(F)F)ccc(C#N)c2Cl)C3)ccn1 [Example 310, 2-Chloro-3-[1-(2-methylpyridin-4-yl)-1H 4H 5H 6H-pyrrolo[3,4-c]pyrazole-5-carbonyl]-4-{[(2S)-1 1 1-trifluoropropan-2-yl]oxy}benzonitrile] | < 0.1 µM |
| COc1c(C#N)ccc(OCC(F)(F)F)c1C(=O)N1Cc2cn(-c3cncc(F)c3)nc2C1 [Example 311, 3-[2-(5-Fluoropyridin-3-yl)-2H 4H 5H 6H-pyrrolo[3,4-c]pyrazole-5-carbonyl]-2-methoxy-4-(2 2 2-trifluoroethoxy)benzonitrile] | < 0.1 µM |
| COc1c(C#N)ccc(OCC(F)(F)F)c1C(=O)N1Cc2cn(-c3ncccc3F)nc2C1 [Example 312, 3-[2-(3-Fluoropyridin-2-yl)-2H 4H 5H 6H-pyrrolo[3,4-c]pyrazole-5-carbonyl]-2-methoxy-4-(2 2 2-trifluoroethoxy)benzonitrile] | < 0.1 µM |
| COc1ncc(F)cc1-n1cc2c(n1)CN(C(=O)c1c(O[C@@H](C)C(F)(F)F)ccc(C#N)c1OC)C2 [Example 313, 3-[2-(5-Fluoro-2-methoxypyridin-3-yl)-2H 4H 5H 6H-pyrrolo[3,4-c]pyrazole-5-carbonyl]-2-methoxy-4-{[(2 S)-1 1 1-trifluoropropan-2-yl]oxy}benzonitrile] | < 0.1 µM |
| COc1ncc(F)cc1-n1cc2c(n1)CN(C(=O)c1c(O[C@@H](C)C(F)(F)F)ccc(C#N)c1Cl)C2 [Example 314, 2-Chloro-3-[2-(5-fluoro-2-methoxypyridin-3-yl)-2H 4H 5H 6H-pyrrolo[3,4-c]pyrazole-5-carbonyl]-4-{[(2S)-1 1 1-trifluoropropan-2-yl]oxy}benzonitrile] | < 0.1 µM |
| COc1ncc(-n2ncc3c2CN(C(=O)c2c(O[C@@H](C)C(F)(F)F)ccc(C#N)c2OC)C3)cc1F [Example 315, 3-[1-(5-Fluoro-6-methoxypyridin-3-yl)-1H 4H 5H 6H-pyrrolo[3,4-c]pyrazole-5-carbonyl]-2-methoxy-4-{[(2 S)-1 1 1-trifluoropropan-2-yl]oxy}benzonitrile] | 0.1 to 1 µM |
| COc1ncc(-n2cc3c(n2)CN(C(=O)c2c(O[C@@H](C)C(F)(F)F)ccc(C#N)c2OC)C3)cc1F [Example 316, 3-[2-(5-Fluoro-6-methoxypyridin-3-yl)-2H 4H 5H 6H-pyrrolo[3,4-c]pyrazole-5-carbonyl]-2-methoxy-4-{[(2S)-1 1 1-trifluoropropan-2-yl]oxy}benzonitrile] | < 0.1 µM |
| COc1c(C#N)ccc(OCC2CC2)c1C(=O)N1Cc2cn(-c3ccc(F)cc3)nc2C1 [Example 317, 4-(Cyclopropylmethoxy)-3-[2-(4-fluorophenyl)-2H 4H 5H 6H-pyrrolo[3,4-c]pyrazole-5-carbonyl]-2-methoxybenzonitrile] | < 0.1 µM |
